Patent EP4810052A2, “HCRHR2 SELECTIVE POLYPEPTIDES” (Gubra A/S, priority 2023, dated 2026)
Like-named read-outs stand apart in the source and are kept apart here. Starred links: 1 amine or outer side, 2 acyl side, 3 side chain; linkers in the order of their positions; H or OH if unused. Non-standard residues stand in square brackets, D forms with d. Residues, ends and D or L forms follow the SMILES beside them. Groups on a side chain read outwards from the residue. *: point of attachment. C20 diacid = O=C(O)CCCCCCCCCCCCCCCCCCC(=O)*; γGlu = O=C(O)[C@H](CCC(=O)[*:2])N[*:1]; Nle = CCCC[C@H](N)C(=O)O; AEEA = NCCOCCOCC(=O)O

Tests used:
hCRHR1 = biological target: T1, hCRHR1 (Homo sapiens, UniProt P34998); assay: HTRF cAMP assay, determination of hCRHR1 potency (peptide libraries 5 conc., purified peptides 11 conc.); format: cell-based
T1 sequence (P34998 24-415): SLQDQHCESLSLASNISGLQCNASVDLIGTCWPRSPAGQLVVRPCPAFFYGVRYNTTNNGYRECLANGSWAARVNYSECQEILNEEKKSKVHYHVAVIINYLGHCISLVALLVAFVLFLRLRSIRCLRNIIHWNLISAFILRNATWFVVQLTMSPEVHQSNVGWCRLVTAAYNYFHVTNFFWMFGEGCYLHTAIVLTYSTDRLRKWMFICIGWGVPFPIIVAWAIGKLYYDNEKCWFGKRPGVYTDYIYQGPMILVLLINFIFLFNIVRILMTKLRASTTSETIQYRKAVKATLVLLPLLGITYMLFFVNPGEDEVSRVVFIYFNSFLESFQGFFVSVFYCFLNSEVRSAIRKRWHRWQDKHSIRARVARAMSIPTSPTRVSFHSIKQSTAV
In short: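 CHO-K1 cells stably expressing human CRHR1, thawed from frozen stocks just before use, were stimulated in suspension with agonist peptides. cAMP was measured by HTRF competitive immunoassay (cryptate anti-cAMP antibody vs d2-cAMP).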

hCRHR2 = biological target: T2, hCRHR2 (Homo sapiens, UniProt Q13324); assay: HTRF cAMP assay, determination of hCRHR2 potency (peptide libraries 5 conc., purified peptides 11 conc.); format: cell-based
T2 sequence (Q13324 1-411): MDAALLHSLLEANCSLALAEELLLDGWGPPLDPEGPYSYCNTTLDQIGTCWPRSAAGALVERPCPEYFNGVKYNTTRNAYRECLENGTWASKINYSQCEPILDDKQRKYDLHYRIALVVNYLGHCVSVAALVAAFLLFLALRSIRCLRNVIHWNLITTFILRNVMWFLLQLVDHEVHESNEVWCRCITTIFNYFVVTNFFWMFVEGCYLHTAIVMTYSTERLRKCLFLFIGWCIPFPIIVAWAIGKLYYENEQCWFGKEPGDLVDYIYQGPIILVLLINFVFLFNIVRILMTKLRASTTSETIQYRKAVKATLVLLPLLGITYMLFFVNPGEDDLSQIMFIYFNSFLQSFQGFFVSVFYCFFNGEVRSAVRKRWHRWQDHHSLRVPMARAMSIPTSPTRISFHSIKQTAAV
In short: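 Agonist peptides are added to suspended, freshly thawed CHO-K1 cells that stably carry the human receptor. Intracellular cAMP competes with d2-cAMP for a cryptate-tagged antibody, lowering the FRET signal. A variable-slope sigmoid curve is fitted to obtain EC50.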

| Structure (SMILES) | EC50 (hCRHR1; Table 3, matched molecular pairs X^38 L vs Nle, peptide library of Example 4, read-out: hCRHR1 pEC50 (converted)) | EC50 (hCRHR2; Table 3, matched molecular pairs X^38 L vs Nle, peptide library of Example 4, read-out: hCRHR2 pEC50 (converted)) | EC50 (hCRHR1; library peptides, matched molecular pairs L vs Nle in position X^38, read-out: Potency hCRHR1 pEC50 (converted)) | EC50 (hCRHR2; library peptides, matched molecular pairs L vs Nle in position X^38, read-out: Potency hCRHR2 pEC50 (converted)) |
| --- | --- | --- | --- | --- |
| CCCC[C@H](NC(=O)[C@@H](NC(=O)[C@H](CCC(=O)O)NC(=O)[C@H](C)NC(=O)[C@H](CC(N)=O)NC(=O)[C@@H](NC(=O)[C@H](CCCCNC(=O)COCCOCCNC(=O)COCCOCCNC(=O)CC[C@H](NC(=O)CC[C@H](NC(=O)CCCCCCCCCCCCCCCCCCC(=O)O)C(=O)O)C(=O)O)NC(=O)[C@H](C)NC(=O)[C@H](CCC(=O)O)NC(=O)[C@H](CCC(=O)O)NC(=O)[C@H](CCCNC(=N)N)NC(=O)[C@H](CCC(N)=O)NC(=O)[C@H](C)NC(=O)[C@H](CCCNC(=N)N)NC(=O)[C@H](C)NC(=O)[C@H](CCCNC(=N)N)NC(=O)[C@H](C)NC(=O)[C@H](CCC(N)=O)NC(=O)[C@H](CCC(=O)O)NC(=O)[C@H](CC(C)C)NC(=O)[C@H](CC(C)C)NC(=O)[C@@H](NC(=O)[C@H](CCC(N)=O)NC(=O)[C@H](CC(C)C)NC(=O)[C@H](CC(C)C)NC(=O)CNC(=O)[C@@H](NC(=O)[C@@H]1CCCN1C(=O)[C@@H](NC(=O)[C@H](CC(=O)O)NC(=O)[C@H](CC(C)C)NC(=O)[C@H](CO)NC(=O)[C@H](CC(C)C)NC(=O)[C@@H](NC(=O)[C@@H](N)[C@@H](C)CC)C(C)C)C(C)C)[C@@H](C)CC)[C@@H](C)CC)[C@@H](C)O)[C@@H](C)CC)C(=O)N[C@@H](C)C(=O)N[C@@H](CCC(=O)O)C(=O)N[C@H](C(N)=O)C(C)C [SEQ ID NO: 34] (H-IVLSLDVPIGLLQILLEQARARAQREEAK([AEEA-AEEA-γGlu-γGlu-C20 diacid])TNAEI[Nle]AEV-NH2) | 100 µM | 0.000251 µM | – | – |
| CCCC[C@H](NC(=O)[C@@H](NC(=O)[C@H](CCC(=O)O)NC(=O)[C@H](C)NC(=O)[C@H](CC(N)=O)NC(=O)[C@@H](NC(=O)[C@H](CCCCNC(=O)COCCOCCNC(=O)COCCOCCNC(=O)CC[C@H](NC(=O)CC[C@H](NC(=O)CCCCCCCCCCCCCCCCCCC(=O)O)C(=O)O)C(=O)O)NC(=O)[C@H](C)NC(=O)[C@H](CCC(=O)O)NC(=O)[C@H](CCC(=O)O)NC(=O)[C@H](CCCNC(=N)N)NC(=O)[C@H](CC(C)C)NC(=O)[C@H](C)NC(=O)[C@H](CCCNC(=N)N)NC(=O)[C@H](C)NC(=O)[C@H](CCCNC(=N)N)NC(=O)[C@H](C)NC(=O)[C@H](CCC(N)=O)NC(=O)[C@H](CCC(=O)O)NC(=O)[C@H](CC(C)C)NC(=O)[C@H](CC(C)C)NC(=O)[C@@H](NC(=O)[C@H](CCC(N)=O)NC(=O)[C@H](CC(C)C)NC(=O)[C@H](CC(C)C)NC(=O)CNC(=O)[C@@H](NC(=O)[C@@H]1CCCN1C(=O)[C@@H](NC(=O)[C@H](CC(=O)O)NC(=O)[C@H](CC(C)C)NC(=O)[C@H](CO)NC(=O)[C@H](CC(C)C)NC(=O)[C@@H](NC(=O)[C@@H](N)[C@@H](C)CC)C(C)C)C(C)C)[C@@H](C)CC)[C@@H](C)CC)[C@@H](C)O)[C@@H](C)CC)C(=O)N[C@@H](C)C(=O)N[C@@H](CCC(=O)O)C(=O)N[C@H](C(N)=O)C(C)C [compound 51] (H-IVLSLDVPIGLLQILLEQARARALREEAK([AEEA-AEEA-γGlu-γGlu-C20 diacid])TNAEI[Nle]AEV-NH2) | – | – | 126 µM | 0.000794 µM |
